What was measured:
[1] = biological target: T1, 3-oxo-5-alpha-steroid 4-dehydrogenase 2 (Homo sapiens) (UniProt P31213); assay: Compound was tested for the inhibition of Steroid 5-alpha-reductase type 2 of human prostates at a concentration of 10e-6 M; format: tissue-based; conditions: Prostate gland
T1 sequence (whole entry): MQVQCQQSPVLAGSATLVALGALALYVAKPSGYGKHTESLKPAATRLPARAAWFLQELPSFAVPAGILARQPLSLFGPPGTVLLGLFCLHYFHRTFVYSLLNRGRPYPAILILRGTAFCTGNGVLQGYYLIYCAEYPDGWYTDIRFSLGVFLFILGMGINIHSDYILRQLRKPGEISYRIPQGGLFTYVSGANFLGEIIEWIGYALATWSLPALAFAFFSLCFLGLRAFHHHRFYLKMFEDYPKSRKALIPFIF

[2] = biological target: T2, 3-oxo-5-alpha-steroid 4-dehydrogenase 2 (Homo sapiens, UniProt P31213); assay: Compound was tested for the inhibition of Steroid 5-alpha-reductase type 2 of human prostates; format: tissue-based, Prostate gland
T2 sequence (P31213 whole entry): T1 sequence (whole entry)

[3] = biological target: T2, 3-oxo-5-alpha-steroid 4-dehydrogenase 2; assay: Compound was tested for the inhibition of type 2 5-alpha-reductase of human prostates; format: tissue-based, Prostate gland

Row | SMILES | inhibition [1] [%] | IC50 [2] [nM] | further results
1 | CC(C)N(C(=O)c1cc(I)c(-c2ccc(C(=O)O)cc2)c([N+](=O)[O-])c1)C(C)C | 0 |  | 
2 | CC(C)N(C(=O)c1cc(I)c(-c2ccc(C(=O)O)cc2)c(I)c1)C(C)C | 0 |  | 
3 | CC(C)N(C(=O)c1cc(N)c(-c2ccc(C(=O)O)cc2)c(N)c1)C(C)C | 0 |  | 
4 | CC(C)N(C(=O)COc1ccc(-c2ccc(C(=O)O)cc2C(F)(F)F)cc1)C(C)C |  | 570 | 
5 | CC(C)N(C(=O)COc1ccc(-c2ccc(C(=O)O)cc2)cc1)C(C)C | 57.5 | 830 | 
6 | Cc1cc(C(=O)O)cc(C)c1-c1ccc(OCC(=O)N(C(C)C)C(C)C)cc1 |  | > 10000 | 
7 | CC(C)N(C(=O)COc1ccc(-c2ccc(C(=O)O)cc2Cl)cc1)C(C)C |  | 870 | 
8 | CC(C)N(C(=O)c1cc(Br)c(-c2ccc(C(=O)O)cc2)c(Br)c1)C(C)C | 0 |  | 
9 | CC(C)N(C(=O)COc1cc(Cl)c(-c2ccc(C(=O)O)cc2)c(Cl)c1)C(C)C |  | > 10000 | 
10 | CC(C)N(C(=O)COc1ccc(-c2c(Cl)cc(C(=O)O)cc2Cl)cc1)C(C)C |  | > 10000 | 
11 | CCc1cc(-c2ccc(C(=O)O)cc2)ccc1OCC(=O)N(C(C)C)C(C)C |  |  | IC50 [3]: 350 nM
12 | CCc1cc(OCC(=O)N(C(C)C)C(C)C)ccc1-c1ccc(C(=O)O)cc1 |  |  | IC50 [3]: 2000 nM
13 | CC(C)N(C(=O)c1cc([N+](=O)[O-])c(-c2ccc(C(=O)O)cc2)c([N+](=O)[O-])c1)C(C)C | 0 |  | 
14 | CC(C)N(C(=O)c1ccc(-c2ccc(C(=O)O)cc2)cc1)C(C)C | 32.5 |  | 
15 | O=C(COc1c(F)cc(-c2ccc(C(=O)O)cc2)cc1[N+](=O)[O-])NC(c1ccccc1)(c1ccccc1)c1ccccc1 |  |  | IC50 [3]: 92 nM
16 | CC(C)N(C(=O)COc1c(F)cc(-c2ccc(C(=O)O)cc2)cc1[N+](=O)[O-])C(C)C |  |  | IC50 [3]: 9.8 nM
17 | CC(C(=O)N(C(C)C)C(C)C)c1ccc(-c2ccc(C(=O)O)cc2)cc1 (stereo not drawn) | 26.9 |  | 
18 | CC(C)N(C(=O)COc1ccc(-c2c(F)cc(C(=O)O)cc2F)cc1)C(C)C |  | > 10000 | 
19 | CC(C)c1cc(-c2ccc(C(=O)O)cc2)cc(C(C)C)c1OCC(=O)N(C(C)C)C(C)C |  | 71 | 
20 | CC(C)N(C(=O)[C@H]1CC[C@H]2[C@@H]3CCc4cc(C(=O)O)ccc4[C@H]3CC[C@]12C)C(C)C |  |  | IC50 [3]: 2.1 nM
21 | CC(C)N(C(=O)[C@H]1CCC2C3CC[C@H]4NC(=O)CC[C@]4(C)C3CC[C@@]21C)C(C)C (stereo partly drawn) |  |  | IC50 [3]: 41 nM
22 | CC(C)N(C(=O)Cc1ccc(-c2ccc(C(=O)O)cc2)cc1)C(C)C | 37 |  | 

From ChEMBL document CHEMBL1134121, “Biphenyls as surrogates of the steroidal backbone. Part 2: discovery of a novel family of non-steroidal 5-alpha-reductase inhibitors” (Bioorg Med Chem Lett, 2001)
